Read-outs that look alike come from different tables or passages of the source.
Tests used:
[1] = target: T1, MALCYP6P9a (Anopheles funestus, UniProt B5AII6); assay: Pyrethroid depletion (metabolism) assay with recombinant enzyme; type: biochemical; details: 20μM insecticide, 1 hour, vs -NADPH
Description: (§6) Membrane expressing recombinant CYP6P9a/-b and AgCPR, and reconstituted cytochrome b5 were added to the side of the tube and pre-incubated for 5 minutes at 30°C, with shaking at 1,200 rpm to activate the membrane. 20μM of test insecticide was then added into the final volume of 0.2ml (~2.5% v/v methanol), and reaction started by vortexing at 1,200 rpm and 30°C for 1 hour. Reactions were quenched with 0.1ml ice-cold methanol and incubated for 5 more minutes. Tubes were then centrifuged at 16,000 rpm and 4°C for 15 minutes, and 150μl of supernatant transferred into HPLC vials for analysis. Reactions were carried out in triplicates with experimental samples (+NADPH) and negative controls (-NADPH). 100μl of sample was loaded onto an isocratic mobile phase (90:10 v/v methanol to water) with a flow rate of 1ml/min, monitoring wavelength of 226nm and peaks separated with a 250mm C18 column (Acclaim 120, Dionex) on Agilent 1260 Infinity at 23°C. Enzyme activity was calculated as percentage depletion (the difference in the amount of insecticide(s) remaining in the +NADPH tubes compared with the–NADPH) and a t-test used for statistical analysis.

[2] = target: FANGCYP6P9a (Anopheles funestus, UniProt K7Z0P3); assay: as above; type: biochemical; details: 20μM insecticide, 1 hour, vs -NADPH
Description: as §6

[3] = target: T2, BENCYP6P9a (Anopheles funestus, UniProt A0A0S1RZ75); assay: as above; type: biochemical; details: 20μM insecticide, 1 hour, vs -NADPH
Description: as §6

[4] = target: T3, UGANCYP6P9a (Anopheles funestus, UniProt B5AII6); assay: as above; type: biochemical; details: 20μM insecticide, 1 hour, vs -NADPH
Description: as §6

[5] = target: T4, MALCYP6P9b (Anopheles funestus, UniProt B5AII7); assay: as above; type: biochemical; details: 20μM insecticide, 1 hour, vs -NADPH
Description: as §6

[6] = target: FANGCYP6P9b (Anopheles funestus, UniProt A0A0S1RZ61); assay: as above; type: biochemical; details: 20μM insecticide, 1 hour, vs -NADPH
Description: To establish whether allelic variation in CYP6P9a and CYP6P9b impact their metabolic activities toward insecticides, pyrethroids were screened with the recombinant enzymes from these genes. […] Membrane expressing recombinant CYP6P9a/-b and AgCPR, and reconstituted cytochrome b5 were added to the side of the tube and pre-incubated for 5 minutes at 30°C, with shaking at 1,200 rpm to activate the membrane. 20μM of test insecticide was then added into the final volume of 0.2ml (~2.5% v/v methanol), and reaction started by vortexing at 1,200 rpm and 30°C for 1 hour. Reactions were quenched with 0.1ml ice-cold methanol and incubated for 5 more minutes. Tubes were then centrifuged at 16,000 rpm and 4°C for 15 minutes, and 150μl of supernatant transferred into HPLC vials for analysis. Reactions were carried out in triplicates with experimental samples (+NADPH) and negative controls (-NADPH). 100μl of sample was loaded onto an isocratic mobile phase (90:10 v/v methanol to water) with a flow rate of 1ml/min, monitoring wavelength of 226nm and peaks separated with a 250mm C18 column (Acclaim 120, Dionex) on Agilent 1260 Infinity at 23°C. Enzyme activity was calculated as percentage depletion (the difference in the amount of insecticide(s) remaining in the +NADPH tubes compared with the–NADPH) and a t-test used for statistical analysis.

[7] = target: T5, BENCYP6P9b (Anopheles funestus, UniProt A0A0S1S7Y0); assay: as above; type: biochemical; details: 20μM insecticide, 1 hour, vs -NADPH
[8] = target: T6, UGANCYP6P9b (Anopheles funestus, UniProt A0A0S1S7Y0); assay: as above; type: biochemical; details: 20μM insecticide, 1 hour, vs -NADPH
[9] = target: T2, BENCYP6P9a; assay: Steady-state kinetics of pyrethroid metabolism; type: biochemical
Description: (§1) Reactions were performed in triplicates both for +NADPH (experimental tubes) and–NADPH (negative control). K m and V max were established from the plot of substrate concentrations against the initial velocities and fitting of the data to the Michaelis-Menten module using the least squares non-linear regression, as described in the GraphPad Prism 6.03 Software (GraphPad Inc., La Jolla, CA, USA).

[10] = target: T5, BENCYP6P9b; assay: Steady-state kinetics of pyrethroid metabolism; type: biochemical
Description: as §1

[11] = target: T1, MALCYP6P9a; assay: Steady-state kinetics of pyrethroid metabolism; type: biochemical
Description: as §1

[12] = target: T4, MALCYP6P9b; assay: Steady-state kinetics of pyrethroid metabolism; type: biochemical
Description: as §1

[13] = target: T3, UGANCYP6P9a; assay: Steady-state kinetics of pyrethroid metabolism; type: biochemical
Description: as §1

[14] = target: T6, UGANCYP6P9b; assay: Steady-state kinetics of pyrethroid metabolism; type: biochemical
Description: as §1

[15] = target: wild type recombinant MALCYP6P9b (wrMALCYP6P9b) (Anopheles funestus, UniProt B5AII7)
Description: as §1
In addition, fluorescent probes were also screened to establish differences in the O-dealkylation activity of the mutants compared with the wild type enzyme. All in vitro and kinetic analyses were conducted as described above. However, as different mutants expressed with varying concentrations all assays were conducted within linear range, with the amount of enzyme and time which produced highest activities.

[16] = test system: Asp^335Glu mutant of MALCYP6P9b; details: 20μM insecticide
Description: (§2) To establish whether allelic variation in CYP6P9a and CYP6P9b impact their metabolic activities toward insecticides, pyrethroids were screened with the recombinant enzymes from these genes. […] Membrane expressing recombinant CYP6P9a/-b and AgCPR, and reconstituted cytochrome b5 were added to the side of the tube and pre-incubated for 5 minutes at 30°C, with shaking at 1,200 rpm to activate the membrane. 20μM of test insecticide was then added into the final volume of 0.2ml (~2.5% v/v methanol), and reaction started by vortexing at 1,200 rpm and 30°C for 1 hour. Reactions were quenched with 0.1ml ice-cold methanol and incubated for 5 more minutes. Tubes were then centrifuged at 16,000 rpm and 4°C for 15 minutes, and 150μl of supernatant transferred into HPLC vials for analysis. Reactions were carried out in triplicates with experimental samples (+NADPH) and negative controls (-NADPH). 100μl of sample was loaded onto an isocratic mobile phase (90:10 v/v methanol to water) with a flow rate of 1ml/min, monitoring wavelength of 226nm and peaks separated with a 250mm C18 column (Acclaim 120, Dionex) on Agilent 1260 Infinity at 23°C.
(§3) In addition, fluorescent probes were also screened to establish differences in the O-dealkylation activity of the mutants compared with the wild type enzyme. All in vitro and kinetic analyses were conducted as described above. […]

[17] = test system: Val^109Ile mutant of MALCYP6P9b; details: 20μM insecticide
Description: as §2, §3

[18] = test system: transgenic flies over-expressing FANGCYP6P9a; details: 2% permethrin paper
Description: (§4) Primers used for this PCR are given in S8 Table. PCR conditions, cloning techniques, construction of transgenic flies and expression of candidate genes was conducted as described in previous studies, with more details provided in S1 Text. For control group, flies with the same background as the UAS transgenic lines but devoid of the UAS construct with the candidate gene were crossed with the driver Actin5C-GAL4 line to generate Actin5C-GAL4-null flies.
(§5) These papers were then rolled and introduced into 45 cc plastic vials. The vials were then plugged with cotton wool soaked in 5% sucrose. 20–25 (2–4 days old, post-eclosion F1 females) were selected for the bioassays and introduced into the vials. Mortality plus knockdown was scored after 1 hr, 2 hrs, 3 hrs, 6 hrs, 12 hrs and 24 hrs post-exposure to the discriminating dose of the insecticides.

[19] = test system: transgenic flies over-expressing FANGCYP6P9b; details: 2% permethrin paper
Description: as §4, §5

[20] = test system: transgenic flies over-expressing MALCYP6P9a; details: 2% permethrin paper
Description: as §4, §5

[21] = test system: transgenic flies over-expressing MALCYP6P9b; details: 2% permethrin paper
Description: as §4, §5

[22] = test system: CYP6M2; set-up: method as in ref [5] (S1 Text); details: cited from earlier work

`CC1(C)C(C=C(Cl)Cl)C1C(=O)OCc1cccc(Oc2ccccc2)c1` (stereo not shown) [permethrin] showed a Percentage depletion [1] of 65.38±1.5 %, a Percentage depletion [2] of 29.0±1.42% and a Percentage depletion [3] of 66.42±2.23 %. The Percentage depletion [4] was 60.71±0.92 %, the Percentage depletion [5] was “more than 90%” and the Percentage depletion ([5]; listed as Permethrin) was 91.6±2.5 %. The Percentage depletion [6] was 13.7±4.23%, the Percentage depletion [7] was 89.63±0.63 % and the Percentage depletion [8] was 88.58±3.48 %. For the same molecule, the Kcat [9] was 9.37±3.32^a min^-1, the “Kcat, fold higher than FANGCYP6P9a” value ([9]; BENCYP6P9a vs FANGCYP6P9a) was 2 fold and the “catalytic efficiency, fold higher than FANGCYP6P9a” value ([9]; BENCYP6P9a vs FANGCYP6P9a) was 3 fold. For the same molecule, the Kcat [10] was 15.91±5.45^b min^-1, the “Kcat, fold higher than FANGCYP6P9b” value ([10]; BENCYP6P9b vs FANGCYP6P9b) was 4 fold and the Kcat [11] was 15.41±6.30^a min^-1. The Km [11] was 18.8 ± 11.8 µM, the “Kcat, fold higher than FANGCYP6P9a” value ([11]; MALCYP6P9a vs FANGCYP6P9a) was 3 fold and the “catalytic efficiency, fold higher than FANGCYP6P9a” value ([11]; MALCYP6P9a vs FANGCYP6P9a) was 6 fold. For the same molecule, the Kcat [12] was 12.38±4.5^b min^-1, the Km [12] was 12.7 ± 2.68 µM and the “Kcat, fold higher than FANGCYP6P9b” value ([12]; MALCYP6P9b vs FANGCYP6P9b) was 3 fold. For the same molecule, the “catalytic efficiency, fold more efficient than FANGCYP6P9b” value ([12]; MALCYP6P9b vs FANGCYP6P9b) was 5 fold, the Kcat [13] was 0.122 ± 0.017 s⁻¹ and the “Kcat, fold higher than FANGCYP6P9a” value ([13]; UGANCYP6P9a vs FANGCYP6P9a) was 2 fold. For the same molecule, the “catalytic efficiency, fold higher than FANGCYP6P9a” value ([13]; UGANCYP6P9a vs FANGCYP6P9a) was 3 fold, the Kcat [14] was 8.61±3.40^b min^-1 and the “Kcat, fold higher than FANGCYP6P9b” value ([14]; UGANCYP6P9b vs FANGCYP6P9b) was 2 fold. For the same molecule, the Kcat [15] was 0.1317 ± 0.0138 s⁻¹, the Km [15] was 10.3 ± 2.38 µM and the “fold less depletion than wrMALCYP6P9b” value [16] was 2.15 fold. For the same molecule, the “fold less depletion than wrMALCYP6P9b” value [17] was 2 fold, the mortality ([18]; 2 hrs) was 30% and the mortality ([18]; 3 hrs) was ~ 60%. For the same molecule, the mortality ([18]; 6 hrs) was ~ 70%, the mortality ([19]; 12 hrs) was 55% and the mortality ([19]; 24 hrs) was ~ 60%. The mortality ([20]; 2 hrs) was “less than 10%”, the mortality ([20]; 3 hrs) was less than 30% and the mortality ([20]; 6 hrs) was less than 45%. The mortality ([21]; 12 hrs) was less than 30%, the mortality ([21]; 24 hrs) was ~ 30% and the Km ([22]; An. gambiae CYP6M2 ref [5] (S1 Text)) was 12 µM. For the same molecule, the catalytic efficiency ([22]; Anopheles gambiae CYP6M2 ref [5] (S1 Text)) was ~ 0.5 min^-1µM^-1.

Source: article PMC4627800, “Allelic Variation of Cytochrome P450s Drives Resistance to Bednet Insecticides in a Major Malaria Vector” (PLoS Genetics, 2015)
